Test results reported in patent EP4635958A1, “PYRIMIDINE-CONTAINING POLYCYCLIC DERIVATIVE INHIBITOR, AND PREPARATION METHOD THEREFOR AND USE THEREOF” (Shanghai Hansoh Biomedical Co., Ltd., priority 2022, dated 2024).

Experiments:
[1] = Pharmacokinetic determination in mice (IV and PO, plasma, LCMS/MS); type: in vivo, Balb/c mice; settings: mouse, in vivo, PO, 30 mg/kg, male Balb/c mice, overnight fasting, plasma
Source text: • 1. Study objective: Balb/c mice were used as test animals to study the pharmacokinetic behavior of the compounds in mice (plasma) after oral administration. • 2. Test scheme • 2.1 Test drugs: The example compounds of the present invention, made in house; • 2.2 Test animals: Balb/c mice, male, purchased from Shanghai Jiesijie Experimental Animal Co., Ltd., animal production license number (SCXK (Shanghai) 2013-0006 N0.311620400001794). • 2.3 Drug formulation: Formulation of a drug for oral administration: 10% Captisol in 50 mM citrate buffer pH 5.0.
(§1) Formulation of 50 mM citric acid: 4.8 g of citric acid was weighed into a 1000 ml glass bottle, ultrapure water was added to 300 ml, and the mixture was magnetically stirred until completely dissolved, additional ultrapure water was then added to 500 ml to formulate 50 mM citric acid.
(§2) Formulation of a solution containing 50 mM citric acid (10% Captisol, PH = 5): 50 g of Captisol powder was weighed and added to a 1000 ml glass bottle, 300 ml of 50 mM citric acid was added, and the mixture was magnetically stirred until completely dissolved, then additional citric acid was added to 500 ml, and the PH was adjusted to 5 using 10 M NaOH.
The example compounds were weighed and added to a 4 mL glass bottle separately, 2.4 mL of the solution was added and the mixture was subjected to ultrasound treatment for 10 min to obtain a colorless clear solution with a concentration of 3 mg/mL.
(§3) Formulation of a drug for intravenous administration: 5%DMSO+10%Solutol HS15+85%PBS.
(§4) The example compounds were weighed, and 5% DMSO was added according to the total administration volume; the mixture was vortexed and sonicated for 2 min to ensure complete dissolution; then, 10% Solutol HS15 was added, and the mixture was vortexed and sonicated for 2 min to achieve complete dissolution; finally, 85% PBS was added, and the mixture was vortexed and sonicated for 5 min; the obtained mixture was filtered through a 0.22 um membrane to obtain a colorless, transparent, and clear solution with a concentration of 0.2 mg/mL.
3 Balb/c mice, male; After overnight fasting, the animals were administered orally (PO) at a dose of 30 mg/kg with an administration volume of 10 mL/kg.
3 Balb/C mice, male; After overnight fasting, the animals were administered intravenously (IV) at a dose of 1 mg/kg with an administration volume of 5 mL/kg.
0.04 mL of blood was collected from the orbit before administration and at 0.25 h, 0.5 h, 1 h, 2 h, 4 h, 6 h, 8 h, and 24 h after administration and placed in an EDTA-2K test tube, and the test tube was centrifuged at 6000 rpm for 6 min at 4°C to separate the plasma, which was stored at -20°C; the animals were fed 4 h after administration.
The final determination results obtained by applying the LCMS/MS method are shown in the table below: Table 6: Pharmacokinetic parameters of the compounds administered intravenously in mice

AsPC-1 = test: Inhibition of proliferation of KRAS G12D mutant tumor cell line AsPC-1 (CellTiter-Glo); type: cell-based; settings: Homo sapiens, ASPC1, about 72 h
Method: 1. Experimental objective: The inhibition activity of the example compounds on the proliferation of 5 KRAS G12D mutant cell lines SNU-1, HPAF-II, Panc0403, AsPC-1 and GP2D was determined. 2. Experimental instruments: • 2.1 Instruments: Microplate reader (BioTek Synergy H1); Pipette (Eppendorf & Rainin). • 2.2 Reagents: HPAF-II, PANC0403, AsPC-1 and GP2D were purchased from COBIOER BIOSCIENCES CO., LTD; SNU-1 was purchased from the cell bank of Chinese Academy of Sciences, Cell Titer-Glo was purchased from Promega, with a catalog number of G7573; RPMI 1640 was purchased from Gibco, with a catalog number of 22400089; DMEM was purchased from Gibco, with a catalog number of 11995065; FBS was purchased from Gibco, with a catalog number of 10091148; PBS was purchased from Gibco, with a catalog number of 10010023; trypsin was purchased from Gibco, with a catalog number of 25200056; cell culture plates were purchased from Corning Company, with a catalog number of 3610. 3. Experimental method: When SNU-1, HPAF-II, Panc0403, AsPC-1 or GP2D cells were cultured to the appropriate confluence, and the SNU-1, HPAF-II, Panc0403, AsPC-1 or GP2D cells were collected. The cells were adjusted to the appropriate cell density using complete culture medium, the cell suspension was plated onto a 96-well plate at 90 µL per well, and the plate was placed in the incubator at 37°C and 5% CO2 for adherent culture overnight. Solutions of the compound with different concentrations were formulated using DMSO and culture medium. A vehicle control was set up. The solutions of the compound were added to the 96-well plate at 10 µL per well, and the plate was placed in the incubator at 37°C and 5% CO2 for further culture for about 72 h. Then, CellTiter-Glo solution was added, and the obtained mixture was shaken and mixed evenly, incubated in the dark for 10 min, and read with a BioTek Synergy H1 microplate reader. 4. Experimental data processing method: The luminescence signal value was used to calculate the inhibition rate. Graphpad Prism software was used to fit the concentration and inhibition rate to a nonlinear regression curve, so as to obtain the IC50 value. 5. Experimental results: Table 2: Determination of the inhibition activity of the compounds on the proliferation of KRAS G12D mutant tumor cell line GP2D

GP2D = test: Inhibition of proliferation of KRAS G12D mutant tumor cell line GP2D (CellTiter-Glo); settings: Homo sapiens, GP2d, 72 h, read-out: GP2D IC50
Method: Experimental method: When SNU-1, HPAF-II, Panc0403, AsPC-1 or GP2D cells were cultured to the appropriate confluence, and the SNU-1, HPAF-II, Panc0403, AsPC-1 or GP2D cells were collected. The cells were adjusted to the appropriate cell density using complete culture medium, the cell suspension was plated onto a 96-well plate at 90 µL per well, and the plate was placed in the incubator at 37°C and 5% CO2 for adherent culture overnight. Solutions of the compound with different concentrations were formulated using DMSO and culture medium. A vehicle control was set up. […] Then, CellTiter-Glo solution was added, and the obtained mixture was shaken and mixed evenly, incubated in the dark for 10 min, and read with a BioTek Synergy H1 microplate reader. […] Experimental data processing method: The luminescence signal value was used to calculate the inhibition rate. Graphpad Prism software was used to fit the concentration and inhibition rate to a nonlinear regression curve, so as to obtain the IC50 value.

[2] = tested on: human colorectal cancer cell line (GP2D); test: Anti-tumor efficacy in mouse transplanted tumor model of human colorectal cancer cell line (GP2D); type: in vivo, mice (BALB/c nude); settings: 100mpk, PO*BID
Source text: 8-10 week old female conventional immunodeficient mice (BALB/c nude) with a body weight of 18 g-22 g were used as experimental animals, and a transplanted tumor model of human colorectal cancer cell line (GP2D) was used to conduct in vivo efficacy experiments to test the anti-tumor results of the example compounds after gavage administration.
(§5) The example compounds of the present invention, made in house.
A certain amount of the example compound was weighed, and an appropriate amount of 10% vehicle (Solutol HS15) was added. The mixture was stirred on a magnetic stirrer for 0.5 h to formulate a homogeneous suspension at the desired concentration.
The human colorectal cancer cell line (GP2D) was derived from COBIOER BIOSCIENCES CO., LTD, cultured on DMEM medium (Gibco, 11995-065) supplemented with 10% fetal calf serum (Gibco, 10091-148) and 1% penicillin/streptomycin (Gibco, 15140-122) and observed under a microscope (Thermo Fisher, 311). The cells were routinely passaged when the cells reached 80%-90% confluence in the culture flask. The passaged cells were cultured in a 37°C, 5% CO2 incubator (Thermo Fisher, 311).
Under aseptic conditions, human colorectal cancer cells (GP2D) in the logarithmic growth phase were harvested using 0.25% trypsin-EDTA (Gibco, 25200-056), washed and resuspended with phosphate buffer. The cell suspension was mixed with Matrigel (Corning, 356234) at a 1 : 1 ratio (v/v) and implanted subcutaneously into the right anterior dorsal region of immunodeficient mice (BALB/c nude). Each mouse was inoculated with 5*10^6 cells in a volume of 100 microliters (µL). After inoculation, when the tumor volume reached 100-200 mm^3, the mice would be evenly randomized into 5 groups based on the tumor size, with 5 mice per group, for in vivo efficacy experiments. The positive control group was the compound MRTX-1133, and the negative control group was the vehicle group.
Mode of administration: The positive control group was intraperitoneally injected, and the example compounds were administered orally.
Twice a week, the long and short diameters of the tumor were measured using a vernier caliper, and the tumor volume (mm^3) was calculated using the formula: V = 0.5*D*d*d, where D and d are the long and short diameters of the tumor, respectively. The anti-tumor efficacy was determined by dividing the average increase in tumor volume of compound-treated animals by the average increase in tumor volume of untreated animals. The calculation formula for tumor inhibition rate was: When there is no tumor regression, TGI(%) = 100-[(Vt-V0) administration group/(Vt-V0) vehicle control group]*100%. When tumor regression occurs, TGI(%) = [1-(V1-V0) administration group/V0 vehicle control group]* 100%. All animals were euthanized after the experiment.

[3] = Pharmacokinetic determination in rats (IV and PO, plasma, LCMS/MS); type: in vivo, SD rats; settings: rat, in vivo, PO, 30 mg/kg, male SD rats, overnight fasting, plasma
Method: SD rats were used as test animals to study the pharmacokinetic behavior of the example compounds in rats (plasma) after oral administration.
as §5
3 SD rats per group, male. Shanghai Jiesijie Experimental Animal Co., Ltd., animal production license number (SCXK (Shanghai) 2013-0006 N0.311620400001794).
Formulation of a drug for oral administration: 10% Captisol in 50 mM citrate buffer pH 5.0.
as §1, §2
The example compounds were weighed and dissolved in the solution and the mixture was shaken well and subjected to ultrasound treatment for 15 min to obtain a colorless clear solution with a concentration of 3 mg/mL.
as §3, §4
3 SD rats per group, male; After overnight fasting, the animals were administered orally (PO) at a dose of 30 mg/kg with an administration volume of 10 mL/kg.
3 SD rats per group, male; After overnight fasting, the animals were administered intravenously (IV) at a dose of 1 mg/kg with an administration volume of 5 mL/kg.
0.2 mL of blood was collected from the jugular vein before administration and at 0.25 h, 0.5 h, 1.0 h, 2.0 h, 4.0 h, 6.0 h, 8.0 h, and 24.0 h after administration and placed in an EDTA-2K test tube, and the test tube was centrifuged at 6000 rpm for 6 min at 4°C to separate the plasma, which was stored at -20°C. the animals were fed 4 h after administration.
The final determination results obtained by applying the LCMS/MS method are shown in the table below: Table 8: Pharmacokinetic parameters of the compounds administered intravenously in rats

| Structure (SMILES) | AUC(0-inf) ([1]; read-out: AUC0-∞) [ng·h/mL] | Cmax ([1]; read-out: Cmax) [ng/mL] | half-life ([1]; read-out: T1/2 (converted)) [h] | Tmax ([1]; read-out: Tmax) [h] | IC50 (AsPC-1) [nM] | IC50 (GP2D) [nM] | Tumor volume (mm^3, Mean ± SD) Day 0 [2] [mm^3] | TGI(%) Day 14 [2] [%] | Tumor volume (mm^3, Mean ± SD) Day 14 [2] [mm^3] | ΔT/ΔC(%) Day 14 [2] [%] | AUC(0-inf) ([3]; read-out: AUCo-∞) [ng·h/mL] | Cmax ([3]; read-out: Cmax) [ng/mL] | Tmax ([3]; read-out: Tmax) [h] |
| --- | --- | --- | --- | --- | --- | --- | --- | --- | --- | --- | --- | --- | --- |
| C#Cc1c(F)ccc2cc(O)cc(-c3nc4c5c(nc(OCC6(CN7CCC(=CF)C7)CC6)nc5c3F)N3C[C@H]5CC[C@H](N5)[C@H]3[C@H](C)O4)c12 [Example 131] | 559 | 151 | 18.3 | 1 | 5 | 0.17 | 167 | 127.11 | 122 | 15.42 | – | – | – |
| C#Cc1c(F)ccc2cc(O)cc(-c3nc4c5c(nc(OCC6(CN7CCC(=CF)CC7C)CC6)nc5c3F)N3CC5CCC(N5)C3C(C)O4)c12 (stereo not shown) [Example 285] | – | – | – | – | 4.8 | 0.16 | 167 | 148.04 | 87 | 10.99 | 598 | 73 | 2 |
